The results in this text go back to ChEMBL document CHEMBL1201862, “PubChem BioAssay data set” (2004).

Among the test systems are 786-0; ACHN; COLO 205; DU-145; HOP-92; HT-29; K562; KM12; M14; MDA-N; NCI-H226; NCI-H23; NCI-H522; NCI/ADR-RES; OVCAR-8; PC-3; SF-268; SW-620; U-251; SK-MEL-28.
Common to all, as to assay: growth of human tumour cells (NCI), 48 h

Molecules are shown by their SMILES.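 Step 1: Grow cells in 96-well plates. Step 2: Expose to compound for 48 hours at 5 concentrations. Step 3: Interpolate endpoints linearly; if unreached, use highest concentration. At the GI50, growth is halved.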 The source made the active and inactive calls. No stated cut-off is given here; in the data, active = GI50 up to about 1.1 µM and inactive = higher.

For the compound `C[n+]1c(-c2ccc(/C=N\N3CCN(/N=C/c4ccc(-c5cn6ccsc6[n+]5C)cc4)CC3)cc2)cn2ccsc21`, the GI50 with 786-0 is 26.1 µM (inactive); in the assay with ACHN, 65.5 µM (inactive); with COLO 205, 16.8 µM (inactive); in the assay on DU-145, 23.3 µM (inactive); in the assay with HOP-92, 42.3 µM (inactive); in the assay on HT-29 it was 40.8 µM (inactive). For the same compound, the GI50 in the assay on K562 was 11.8 µM (inactive); in the assay on KM12, 25.8 µM (inactive); in the assay with M14, 44.8 µM (inactive); in the assay with MDA-N, 25.7 µM (inactive); in the assay with NCI-H226 it was 45.8 µM (inactive); with NCI-H23, 30.1 µM (inactive). In addition, the GI50 in the assay with NCI-H522 was 18.1 µM (inactive); in the assay on NCI/ADR-RES, > 100 µM (inactive); in the assay with OVCAR-8, 41.7 µM (inactive); in the assay with PC-3, > 100 µM (inactive); in the assay on SF-268, 34.4 µM (inactive); with SW-620, 32.1 µM (inactive). For the same compound, the GI50 with U-251 was 30.3 µM (inactive).
In the case of `CC(=O)Nc1ccc(-c2cc(C(=O)O)c3cc4ccccc4cc3n2)cc1`, the GI50 in the assay with 786-0, in the assay on ACHN, in the assay with COLO 205, with DU-145, in the assay with HOP-92 and in the assay with HT-29 was > 100 µM (inactive) in each case. Also, the GI50 in the assay on K562, with KM12, with M14, in the assay with MDA-N, in the assay with NCI-H226 and with NCI-H23 was > 100 µM (inactive) throughout. For the same compound, the GI50 in the assay with NCI-H522, in the assay with NCI/ADR-RES, in the assay on OVCAR-8, in the assay with PC-3, in the assay on SF-268 and in the assay with SK-MEL-28 was > 100 µM (inactive) each time. The GI50 in the assay with SW-620 and in the assay with U-251 was > 100 µM (inactive) each time.
Regarding `Cc1ccc(S(=O)(=O)NC2C(=O)c3ccccc3C(=O)C2n2ccnc2)cc1` (stereo not given), the GI50 was 17.4 µM (inactive) in the assay on 786-0; > 100 µM (inactive) in the assay on ACHN; 71 µM (inactive) in the assay on COLO 205; 17 µM (inactive) in the assay on DU-145; 35.8 µM (inactive) with HOP-92; > 100 µM (inactive) in the assay on HT-29. Moreover, the GI50 is > 100 µM (inactive) in the assay with K562; > 100 µM (inactive) with KM12; > 100 µM (inactive) in the assay on M14; 15.4 µM (inactive) in the assay with MDA-N; > 100 µM (inactive) in the assay with NCI-H226; 25.4 µM (inactive) in the assay on NCI-H23. Further, the GI50 was < 0.01 µM (active) in the assay with NCI-H522; > 100 µM (inactive) in the assay on NCI/ADR-RES; > 100 µM (inactive) in the assay on OVCAR-8; > 100 µM (inactive) with PC-3; > 100 µM (inactive) with SF-268; > 100 µM (inactive) in the assay on SK-MEL-28. Besides, the GI50 with SW-620 and with U-251 was > 100 µM (inactive) in each case.
As for `OCCOCn1nncc1Cn1ncc2c(SCc3ccccc3)ncnc21`, the GI50 with 786-0 is 34.7 µM (inactive); in the assay with ACHN it was > 100 µM (inactive); in the assay on COLO 205 it was > 100 µM (inactive); in the assay on DU-145 it was > 100 µM (inactive); in the assay on HOP-92, 80.9 µM (inactive); with HT-29, 37.7 µM (inactive). Further, the GI50 with K562 was 37.7 µM (inactive); with KM12, > 100 µM (inactive); with M14, 59.3 µM (inactive); in the assay with MDA-N it was 54.7 µM (inactive); with NCI-H226, > 100 µM (inactive); in the assay with NCI-H23, > 100 µM (inactive). Further, the GI50 is 42.8 µM (inactive) in the assay on NCI-H522; > 100 µM (inactive) with NCI/ADR-RES; 64 µM (inactive) in the assay with OVCAR-8; 94.8 µM (inactive) in the assay on PC-3; > 100 µM (inactive) with SF-268; > 100 µM (inactive) with SK-MEL-28. The figures for the GI50 with SW-620 and in the assay with U-251 were 15.6 µM (inactive) and > 100 µM (inactive), respectively.
On to `COC(=O)C(CCC1C=CN(S(=O)(=O)c2ccc(C)cc2)C1)/N=C/c1ccccc1` (stereo not given), for which the GI50 was 43.8 µM (inactive) in the assay with 786-0; > 100 µM (inactive) in the assay with ACHN; 18.2 µM (inactive) with COLO 205; 43 µM (inactive) in the assay with DU-145; 29.7 µM (inactive) in the assay with HOP-92; 30.9 µM (inactive) in the assay on HT-29. For the same compound, the GI50 with K562 is 34.7 µM (inactive); in the assay on KM12, 34.8 µM (inactive); in the assay on M14, 42.7 µM (inactive); in the assay with MDA-N it was 38.3 µM (inactive); in the assay on NCI-H226 it was 32.3 µM (inactive); with NCI-H23, 26.4 µM (inactive). Moreover, the GI50 with NCI-H522 was 34.4 µM (inactive); in the assay on NCI/ADR-RES it was > 100 µM (inactive); with OVCAR-8, 39.5 µM (inactive); in the assay with PC-3, 32.7 µM (inactive); in the assay with SF-268 it was 69.8 µM (inactive); in the assay on SK-MEL-28 it was 69.5 µM (inactive). Further, the results for the GI50 in the assay with SW-620 and with U-251 were 41.1 µM (inactive) and 43.5 µM (inactive), respectively.
On to `CCCCNCC(=O)O[C@]1(CC)C(=O)OCc2c1cc1n(c2=O)Cc2cc3ccccc3nc2-1`, for which the GI50 in the assay with 786-0 is 0.0482 µM (active); in the assay on ACHN it was 0.037 µM (active); in the assay on COLO 205, 1.7 µM (inactive); with DU-145, 0.0482 µM (active); in the assay on HOP-92 it was 1.52 µM (inactive); in the assay on HT-29 it was 0.838 µM (active). Moreover, the GI50 with K562 was 0.476 µM (active); in the assay with KM12 it was 1.63 µM (inactive); with M14 it was 0.231 µM (active); with MDA-N, 2.11 µM (inactive); in the assay on NCI-H226, 0.105 µM (active); with NCI-H23, 0.0769 µM (active). In addition, the GI50 with NCI-H522 was 0.224 µM (active); in the assay on NCI/ADR-RES it was 0.0789 µM (active); with OVCAR-8, 0.217 µM (active); in the assay on PC-3, 1.85 µM (inactive); in the assay on SF-268, 0.0851 µM (active); with SK-MEL-28, 2.17 µM (inactive). Further, the GI50 with SW-620 is 0.0836 µM (active); with U-251, 0.0508 µM (active).
Regarding `N#Cc1nc(CCC(c2nc(C#N)c(N)o2)N2C(=O)c3ccccc3C2=O)oc1N` (stereo not given), the GI50 in the assay on 786-0, with ACHN, with COLO 205, in the assay with DU-145, with HOP-92 and with HT-29 was > 100 µM (inactive) in each case. Moreover, the GI50 in the assay on K562 was 32.8 µM (inactive); in the assay on KM12, > 100 µM (inactive); in the assay with M14, > 100 µM (inactive); with MDA-N, > 100 µM (inactive); in the assay on NCI-H226, > 100 µM (inactive); in the assay with NCI-H23, > 100 µM (inactive). The GI50 with NCI-H522, in the assay on NCI/ADR-RES, in the assay on PC-3, in the assay with SF-268, in the assay on SK-MEL-28 and in the assay with SW-620 was > 100 µM (inactive) throughout. The GI50 in the assay with U-251 was > 100 µM (inactive).
With `CCC/N=C/c1cc(Cc2ccc(O)c(/C=N/CCC)c2)ccc1O`, the GI50 in the assay with 786-0 is 12.8 µM (inactive); with ACHN, 20.7 µM (inactive); in the assay on COLO 205, 16.1 µM (inactive); in the assay on DU-145, 4.61 µM (inactive); in the assay on HOP-92 it was 1.85 µM (inactive); with HT-29, 12.5 µM (inactive). For the same compound, the GI50 in the assay with K562 is 1.69 µM (inactive); in the assay on KM12 it was 3.95 µM (inactive); in the assay with M14, 2.69 µM (inactive); in the assay with MDA-N it was 2.78 µM (inactive); with NCI-H226, 8.43 µM (inactive); in the assay on NCI-H23, 6.46 µM (inactive). In addition, the GI50 in the assay on NCI-H522 was 20.6 µM (inactive); with NCI/ADR-RES, 17.2 µM (inactive); in the assay on OVCAR-8, 3.1 µM (inactive); in the assay with PC-3 it was 1.82 µM (inactive); with SF-268, 3.8 µM (inactive); in the assay on SW-620 it was 3.55 µM (inactive). Further, the GI50 in the assay with U-251 was 2.64 µM (inactive).
For the compound `C=C1C(O)C2OC(=O)C(=C)C2C(OC(=O)/C(C)=C/C)CC2(C)OC2C2OC12` (stereo not given), the GI50 is 6.31 µM (inactive) with 786-0; 3.69 µM (inactive) in the assay on ACHN; 7.1 µM (inactive) in the assay on COLO 205; 7.14 µM (inactive) in the assay on DU-145; 19.4 µM (inactive) in the assay on HOP-92; 5.47 µM (inactive) with HT-29. Further, the GI50 with KM12 is 2.86 µM (inactive); in the assay on M14 it was 18 µM (inactive); with MDA-N, 2.2 µM (inactive); in the assay with NCI-H226, > 100 µM (inactive); with NCI-H23, 8.28 µM (inactive); in the assay with NCI-H522, 3.15 µM (inactive). The GI50 in the assay on NCI/ADR-RES was 7.93 µM (inactive); in the assay with OVCAR-8, 6.11 µM (inactive); with PC-3, 15.3 µM (inactive); in the assay on SF-268, 4.67 µM (inactive); with SK-MEL-28, 20.4 µM (inactive); in the assay with SW-620 it was 8.04 µM (inactive). Also, in the assay on U-251, the GI50 was 17.2 µM (inactive).
As for `COc1ccc(-n2sc3ncccc3c2=O)cc1`, the GI50 was 15.9 µM (inactive) in the assay on 786-0; 19.4 µM (inactive) in the assay on ACHN; 16.9 µM (inactive) with COLO 205; 39.4 µM (inactive) in the assay on DU-145; 27.7 µM (inactive) with HOP-92; 20.8 µM (inactive) in the assay with HT-29. The GI50 in the assay on KM12 is 19.1 µM (inactive); in the assay on M14 it was 21.9 µM (inactive); in the assay on MDA-N, 21.5 µM (inactive); in the assay on NCI-H226, 39.4 µM (inactive); with NCI-H23, 19.3 µM (inactive); in the assay with NCI-H522 it was 17.5 µM (inactive). For the same compound, the GI50 was 25 µM (inactive) with NCI/ADR-RES; 26.8 µM (inactive) with OVCAR-8; 23.8 µM (inactive) in the assay on PC-3; 24.7 µM (inactive) with SF-268; 23.6 µM (inactive) in the assay on SK-MEL-28; 32.1 µM (inactive) in the assay with SW-620. Moreover, in the assay on U-251, the GI50 is 23.1 µM (inactive).
